Measured values as given in US6241963A, “Dopamine and serotonin transporter ligands and imaging agents” (priority 1996, dated 2001).
Where “and” joins values, the source holds several entries; their conditions need not be identical. Identical values can stand only once. Like-named read-outs stand apart in the source and are kept apart here.

Columns and labels:
[1] = type: in vivo, Male Sprague-Dawley rats
Procedure: Male Sprague-Dawley rats (225-300 g) allowed free access to food and water were used for in vivo biodistribution studies. Kung, 1984, supra; Kung, 1985, supra. While under ether anesthesia, 0.2 mL of a saline solution containing 1.19a, 1.19b, 1.20a, 1.20b or 1.21 (50-100 μCi) was injected directly into the femoral vein of rats, and the rats were sacrificed by cardiac excision at various time points post-injection. The organs of interest were removed and weighed, and the radioactivity was counted with an automatic gamma counter (Packard 5000). The percentage dose per organ was calculated by a comparison of the tissue counts to suitably diluted aliquots of the injected material. Total activities of blood and muscle were calculated under the assumption that they were 7% and 40% of the total body weight, respectively.
The major criteria for determining the potential usefulness of in vivo dopamine transporter imaging agents are based on an animal biodistribution study. In this case, rats were used as an animal model. After an intravenous injection of the Tc-99m labeled compounds, the values of initial brain uptake (% dose/whole organ) at 2 minutes post intravenous injection are used to measure the ability to penetrate the intact blood-brain barrier. Compounds displaying higher brain uptake are the better agents (minimum requirement >0.1% dose in brain). The second criteria is the specific uptake in the striatum region of the brain, where dopamine transporters are located. The uptake value (% dose/gram) of the striatum (ST) is divided by the background area, cerebellum (CB; essentially devoid of dopamine transporter); the ratio of ST/CB is an indicator for specific uptake (minimum requirement for ST/CB >1.5). Five structurally similar tropane derivatives were examined in this biological study. (Tables 1.1 to 1.4).
Male Sprague-Dawley rats (225-300 g) that were allowed free access to food and water were used for in vivo biodistribution studies. (Kung, 1984, supra; Kung, 1985, supra). While under halothane anesthesia, 0.2 mL of a saline solution containing 3.24 to 3.34 ([…]) was injected directly into the femoral vein of rats, and they were sacrificed by cardiac excision at various time points post-injection. The organs of interest were removed and weighed, and the radioactivity was counted with an automatic gamma counter (Packard 5000). The percentage dose per organ was calculated by a comparison of the tissue counts to suitably diluted aliquots of the injected material. Total activities of blood and muscle were calculated under the assumption that they were 7% and 40% of the total body weight, respectively.

[2] = Partition coefficient between 1-octanol (n-octanol) and buffer; type: physicochemical
Procedure: (§1) Partition coefficients were measured by mixing each Tc-99m compound with 3 g each of 1-octanol and buffer (pH 7.0 or 7.4, 0.1 M phosphate) in a test tube. The test tube was vortexed for 3 minutes at room temperature, then centrifuged for 5 minutes. Two weighed samples (0.5 g each) from the 1-octanol and buffer layers were counted in a well counter. The partition coefficient was determined by calculating the ratio of cpm/g of octanol to that of buffer. Samples from the octanol layer were repartitioned until consistent partition coefficient values were obtained. The measurement was repeated 3 times.
as §1, with “The partition coefficient was measured” for “Partition coefficients were measured”, “mixing the” for “mixing each”, “3 min” for “3 minutes”

[3] = test system: dopamine transporter; assay: Blocking studies in rats (pretreatment or co-injection with competing agent); type: in vivo, Male Sprague-Dawley rats; conditions: for ST/CB ratio after pretreatment with haldol (haloperidol) / ST/CB ratio after pretreatment with β-CIT (RTI-55): 60 min, pretreated 1 mg/kg iv, 5 min before tracer; for ST/CB ratio, control rats of blocking study: 60 min post-injection, no pretreatment
Procedure: (§2) Regional brain distribution in rats was obtained after an injection of 1.19a, 1.19b, 1.20a, 1.20b or 1.21. Samples from different brain regions (cortex, striatum, hippocampus, and cerebellum) were dissected, weighed and counted, and the percentage dose per gram of sample was calculated by comparing the sample counts with the count of the diluted initial dose. The uptake ratio of each region was obtained by dividing the percentage dose per gram of that region by that of the cerebellum. For blocking studies, rats were injected with either β-CIT or haloperidol (iv, 1 mg/Kg) 5 min prior to injection of 1.19a. The rats were dissected and brain tissue samples were counted as described above. The specific uptake of the compound was expressed as ratio of ST/CB (% dose/g of striatum divided by the same of cerebellum).
as §2, with “3.24 to 3.34.” for “1.19a, 1.19b, 1.20a, 1.20b or 1.21.”, “3.25.” for “1.19a.”, “above.” for “above. The specific uptake of the compound was expressed as ratio of ST/CB (% dose/g of striatum divided by the same of cerebellum).”

[4] = Table 1.2, rats iv, percentage dose per organ

CN1[C@H]2CC[C@@H]1[C@@H](C[N+]13CC[S][99Tc-]14(=[O])[S]CC[N]4CC3)[C@@H](c1ccc(Cl)cc1)C2 (stereo partly shown) [Compound 1.19a]
Biodistribution, Blood, 60 minutes* ([1]; Table 1.2, *unexplained): 6.29 ± 1.12 | Biodistribution, Brain, 60 minutes* ([1]; Table 1.2, *unexplained): 0.12 ± 0.01 | Biodistribution, Heart, 60 minutes* ([1]; Table 1.2, *unexplained): 0.25 ± 0.05 | Biodistribution, Kidney, 60 minutes* ([1]; Table 1.2, *unexplained): 1.76 ± 0.32 | Biodistribution, Liver, 60 minutes* ([1]; Table 1.2, *unexplained): 20.35 ± 0.99 | Biodistribution, Lung, 60 minutes* ([1]; Table 1.2, *unexplained): 1.76 ± 0.12 | Biodistribution, Muscle, 60 minutes* ([1]; Table 1.2, *unexplained): 10.37 ± 0.48 | Biodistribution, Skin, 60 minutes* ([1]; Table 1.2, *unexplained): 4.11 ± 0.29 | Biodistribution, Spleen, 60 minutes* ([1]; Table 1.2, *unexplained): 0.51 ± 0.06 | Biodistribution, Blood, 2 minutes [1, 4]: 4.94 ± 0.46 | Biodistribution, Blood, 60 minutes [1, 4]: 2.14 ± 0.17 | Biodistribution, Brain, 2 minutes [1, 4]: 0.43 ± 0.16 | Biodistribution, Brain, 60 minutes [1, 4]: 0.12 ± 0.00 | Biodistribution, Heart, 2 minutes [1, 4]: 1.47 ± 0.16 | Biodistribution, Heart, 60 minutes [1, 4]: 0.19 ± 0.02 | Biodistribution, Kidney, 2 minutes [1, 4]: 5.13 ± 0.75 | Biodistribution, Kidney, 60 minutes [1, 4]: 3.06 ± 0.14 | Biodistribution, Liver, 2 minutes [1, 4]: 16.62 ± 2.11 | Biodistribution, Liver, 60 minutes [1, 4]: 17.67 ± 3.42 | Biodistribution, Lung, 2 minutes [1, 4]: 6.82 ± 0.37 | Biodistribution, Lung, 60 minutes [1, 4]: 1.86 ± 0.36 | Biodistribution, Muscle, 2 minutes [1, 4]: 10.84 ± 1.95 | Biodistribution, Muscle, 60 minutes [1, 4]: 10.28 ± 1.36 | Biodistribution, Skin, 2 minutes [1, 4]: 2.66 ± 0.35 | Biodistribution, Skin, 60 minutes [1, 4]: 3.96 ± 0.22 | Biodistribution, Spleen, 2 minutes [1, 4]: 0.42 ± 0.16 | Biodistribution, Spleen, 60 minutes [1, 4]: 0.45 ± 0.05 | Brain uptake, 2 min ([1]; rats, iv, 2 min): 0.43 ± 0.16 % dose/organ | Brain uptake, 2 min ([1]; rats, iv, 2 min, listed as TRODAT-1): 0.425 ± 0.120 % dose/organ | Brain uptake, 30 min ([1]; rats, iv, 30 min): 0.232 ± 0.021 % dose/organ | Brain uptake, 60 min ([1]; rats, iv, 60 min): 0.12 ± 0.001 % dose/organ and 0.12 ± 0.00 % dose/organ | Partition coefficient (P.C.), 1-octanol/pH 7.0 buffer ([2]; 1-octanol/pH 7.0 phosphate buffer, listed as TRODAT-1): 227 | ST/CB ratio after pretreatment with haldol (haloperidol) [3]: 2.6 | ST/CB ratio after pretreatment with β-CIT (RTI-55) [3]: 1.0 | ST/CB ratio, control rats of blocking study [3]: 2.66 and 2.6

COC(=O)C1C(c2ccc(Cl)cc2)CC2CCC1N2CC[S][99Tc-]12(=[O])[S]CC[N+]1(C)CC[S]2 [Compound 3.25, [^99m Tc] technetium, [methyl 3-(4-chlorophenyl)-8-(2-mercaptoethyl)-8-azabicyclo [3.2.1]octane-2-carboxylato-S][[2,2'-(methylimino)bis[ethanethiolato]](2-)-N,S,S']oxo]
Brain Uptake (% dose), 2 min ([1]; Table 3.1, rats, iv, 2 min): 0.100 ± 0.068 % dose | Brain Uptake (% dose), 30 min ([1]; Table 3.1, rats, iv, 30 min): 0.07 ± 0.003 % dose | Biodistribution and washout, in words ([1]; rats, iv): cleared from muscle, while liver accumulation increased with time | Blood uptake, 2 min ([1]; rats, iv, 2 min): 4.72 ± 1.37 % dose/organ | Brain uptake, 2 min ([1]; rats, iv, 2 min): 0.10 ± 0.02 % dose/organ | Heart uptake, 2 min ([1]; rats, iv, 2 min): 1.46 ± 0.37 % dose/organ | Kidney uptake, 2 min ([1]; rats, iv, 2 min): 5.67 ± 0.94 % dose/organ | Liver uptake, 2 min ([1]; rats, iv, 2 min): 13.51 ± 0.36 % dose/organ | Lung uptake, 2 min ([1]; rats, iv, 2 min): 6.41 ± 2.04 % dose/organ | Muscle uptake, 2 min ([1]; rats, iv, 2 min): 23.30 ± 3.82 % dose/organ | Skin uptake, 2 min ([1]; rats, iv, 2 min): 2.94 ± 0.36 % dose/organ | Spleen uptake, 2 min ([1]; rats, iv, 2 min): 0.36 ± 0.07 % dose/organ | Blood uptake, 30 min ([1]; rats, iv, 30 min): 2.75 ± 0.62 % dose/organ | Brain uptake, 30 min ([1]; rats, iv, 30 min): 0.06 ± 0.02 % dose/organ | Heart uptake, 30 min ([1]; rats, iv, 30 min): 0.30 ± 0.04 % dose/organ | Kidney uptake, 30 min ([1]; rats, iv, 30 min): 3.10 ± 0.68 % dose/organ | Liver uptake, 30 min ([1]; rats, iv, 30 min): 29.61 ± 2.22 % dose/organ | Lung uptake, 30 min ([1]; rats, iv, 30 min): 2.09 ± 0.47 % dose/organ | Muscle uptake, 30 min ([1]; rats, iv, 30 min): 16.70 ± 3.62 % dose/organ | Skin uptake, 30 min ([1]; rats, iv, 30 min): 4.71 ± 1.27 % dose/organ | Spleen uptake, 30 min ([1]; rats, iv, 30 min): 0.61 ± 0.10 % dose/organ | Blood uptake, 60 min ([1]; rats, iv, 60 min): 2.83 ± 0.42 % dose/organ | Brain uptake, 60 min ([1]; rats, iv, 60 min): 0.046 ± 0.002 % dose/organ | Heart uptake, 60 min ([1]; rats, iv, 60 min): 0.22 ± 0.23 % dose/organ | Kidney uptake, 60 min ([1]; rats, iv, 60 min): 2.87 ± 0.43 % dose/organ | Liver uptake, 60 min ([1]; rats, iv, 60 min): 32.15 ± 3.00 % dose/organ | Lung uptake, 60 min ([1]; rats, iv, 60 min): 1.26 ± 0.06 % dose/organ | Muscle uptake, 60 min ([1]; rats, iv, 60 min): 13.63 ± 0.99 % dose/organ | Skin uptake, 60 min ([1]; rats, iv, 60 min): 4.57 ± 0.65 % dose/organ | Spleen uptake, 60 min ([1]; rats, iv, 60 min): 0.50 ± 0.09 % dose/organ | Blood uptake, 120 min ([1]; rats, iv, 120 min): 2.31 ± 0.27 % dose/organ | Brain uptake, 120 min ([1]; rats, iv, 120 min): 0.025 ± 0.002 % dose/organ | Heart uptake, 120 min ([1]; rats, iv, 120 min): 0.12 ± 0.013 % dose/organ | Kidney uptake, 120 min ([1]; rats, iv, 120 min): 2.74 ± 0.096 % dose/organ | Liver uptake, 120 min ([1]; rats, iv, 120 min): 35.37 ± 1.52 % dose/organ | Lung uptake, 120 min ([1]; rats, iv, 120 min): 0.69 ± 0.061 % dose/organ | Muscle uptake, 120 min ([1]; rats, iv, 120 min): 4.33 ± 1.20 % dose/organ | Skin uptake, 120 min ([1]; rats, iv, 120 min): 2.30 ± 0.082 % dose/organ | Spleen uptake, 120 min ([1]; rats, iv, 120 min): 0.58 ± 0.009 % dose/organ | Partition coefficient / lipophilicity, comparison in words [2]: appears to be the best among this series of three plus one Tc complexes | Partition coefficient, n-octanol/buffer ([2]; n-octanol/phosphate buffer (pH 7.0 or 7.4)): 307 | ST/CB ratio after pretreatment with haldol (haloperidol) [3]: 2.6 | ST/CB ratio after pretreatment with β-CIT (RTI-55) [3]: 1.0 | ST/CB ratio, control rats of blocking study [3]: 2.6
